Data taken from publication PMC4693163, “Candida albicans Shed Msb2 and Host Mucins Affect the Candidacidal Activity of Salivary Hst 5” (Pathogens, 2015).

Key:
[1] = test system: Candida albicans; assay: Candidacidal assay (microdilution plate) of Hst 5 after pre-incubation with proteins; assay type: cell-based; settings: 37 °C, 1 h
Protocol: (§1) Candidacidal assays—The susceptibility of C. albicans cells to Hst 5 was measured using microdilution plate assays in triplicate as previously described, with some modifications for experiments involving rSap6 and mucins. Briefly, Hst 5 was incubated with the required concentration of respective proteins for 1 h at 37 °C before performing the candidacidal assay. For heat inactivated control of rSaps, protein was heat inactivated at 120 °C for 10 min before using in the candidacidal assay.

[2] = target: T1, rSap 6 (Candida albicans, UniProt Q5AC08); assay: Proteolytic stability of Hst 5 with rSap 6 (10 KDa cut-off filtrate, LC/MS); assay type: in vitro ADME; settings: 2:1 Hst 5: Sap 6, 37 °C, 1 h, C18 column, peaks m/z 760, 608, 507
T1 construct: made in house
T1 sequence (Q5AC08 77-418): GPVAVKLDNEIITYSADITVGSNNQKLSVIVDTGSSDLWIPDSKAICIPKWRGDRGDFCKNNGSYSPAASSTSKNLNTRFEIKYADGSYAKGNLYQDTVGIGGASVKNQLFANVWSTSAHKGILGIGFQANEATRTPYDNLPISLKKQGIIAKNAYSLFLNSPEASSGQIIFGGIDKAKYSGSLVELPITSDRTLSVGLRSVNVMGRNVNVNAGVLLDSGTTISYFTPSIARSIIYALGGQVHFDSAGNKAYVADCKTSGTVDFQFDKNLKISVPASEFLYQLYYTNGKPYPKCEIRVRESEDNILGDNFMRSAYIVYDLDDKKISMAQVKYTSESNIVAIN
Protocol: To further address whether Sap 6 degrades Hst 5, we spun the 2:1 Hst 5: Sap 6 incubation mixture through a Centricon® 10 KDa molecular weight cut-off column that would allow Hst 5 and smaller peptides to pass through; and subjected the eluate to Liquid Chromatography/Mass Spectrometry. […] Analysis of these fragments to determine Sap6-specific cleavage sites within Hst 5 is ongoing.
(§2) Proteolytic stability—For Hst 5 degradation analysis, Hst 5 was incubated with the required concentration of respective proteins for 1 h at 37 °C; and the reaction mixture was spun through a Centricon® 10 KDa cut-off column (Millipore UFC501024, Amicon Ultra-0.5 centrifugal filter unit with Ultracel-10 membrane), diluted in water with 2%TFA (trifluoroacetic acid) to 40 ug/mL of peptide, and analyzed by Liquid Chromatography/Mass Spectrometry utilizing a C18 column and an API3000 triple quadrupole mass spectrometer (Applied Biosystems, Foster City, CA,USA). The mass spectrum of Hst 5 gave a distribution of charge states with the most abundant being the M + 4 at 760 Da.

[3] = target: T2, albumin (Bos taurus, UniProt P02769); assay: Hst 5 degradation analysis with albumin (10 KDa cut-off filtrate, LC/MS); assay type: in vitro ADME; settings: 40 μM Hst 5 with 40 μM albumin, 37 °C, 1 h, C18 column
T2 construct: purchased Sigma Aldrich A2153
T2 sequence (P02769 25-607): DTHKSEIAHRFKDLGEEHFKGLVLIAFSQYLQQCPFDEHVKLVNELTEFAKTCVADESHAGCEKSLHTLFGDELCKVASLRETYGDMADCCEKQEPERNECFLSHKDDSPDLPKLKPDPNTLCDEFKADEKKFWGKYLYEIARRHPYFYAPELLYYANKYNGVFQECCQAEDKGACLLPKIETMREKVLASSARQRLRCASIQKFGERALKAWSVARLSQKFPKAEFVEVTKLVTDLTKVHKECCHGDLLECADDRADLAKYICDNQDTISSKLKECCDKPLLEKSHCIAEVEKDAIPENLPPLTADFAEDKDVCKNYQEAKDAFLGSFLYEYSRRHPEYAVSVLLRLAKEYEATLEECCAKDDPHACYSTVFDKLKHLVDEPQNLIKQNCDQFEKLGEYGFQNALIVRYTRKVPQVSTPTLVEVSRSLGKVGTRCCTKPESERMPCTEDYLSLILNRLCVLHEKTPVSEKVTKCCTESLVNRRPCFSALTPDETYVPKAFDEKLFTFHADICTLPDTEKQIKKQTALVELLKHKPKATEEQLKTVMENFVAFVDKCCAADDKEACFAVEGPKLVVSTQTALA
Protocol: (§3) We next investigated whether the effect of these proteins on Hst 5 activity is related to complexation and Hst 5 sequestration or as a result, instead, of degradation caused by potential contaminating proteases that may be present in these commercial proteins. For this, 40 μM Hst 5 was incubated for 1 h at 37 °C with either 50 or 500 μg/mL porcine mucin or 40 μM albumin, respectively, and spun through a Centricon® 10 KDa molecular weight cut-off column that would allow Hst 5 and smaller peptides to pass through followed by Liquid Chromatography/Mass Spectrometry analysis of the eluate.
as §2

[4] = test system: porcine mucin; assay: Hst 5 degradation analysis with porcine mucin (10 KDa cut-off filtrate, LC/MS); assay type: in vitro ADME; settings: 37 °C, 1 h
Protocol: as §3, §2

[5] = test system: C. albicans Msb2 domain mutant cells; assay: Candidacidal assay on HA-tagged Msb2 domain mutant cells; assay type: cell-based, Candida albicans; settings: Figure 6
Source text: C. albicans strains with HA-tagged Msb2 and its domain mutants were constructed previously. These mutants consisted of versions of Msb2 lacking each of the major functional domains: ED1/2Δ lacking residues 100–900 of the glycosylated extracellular region so that shed Msb2 is truncated with low glycosylation; ED4Δ cells lacking Msb2 residues 900–1250 within the cleavage domain of Msb2 resulting in constitutive shedding of Msb2 due to loss of cell tethering; and TM-CYTΔ cells lacking residues 1250–1409 that comprise the transmembrane and cytoplasmic signaling domain of Msb2 so that Msb2 is cleaved and shed in the absence of signaling. Briefly, Msb2 deletion derivative strains were constructed by a PCR-based approach using the URA-Blaster technique. PCR primers were designed to amplify the 3HA-URA3–3HA cassette in plasmid pCaMPY-3XHA [26], tailed with an additional 80 nucleotides of sequence flanking the open reading frame (ORF) of the region to be disrupted. PCR products were verified by gel electrophoresis. The purified PCR product (10 μg) was transformed into the Δmsb2/MSB2 strain with Frozen-EZ Yeast Transformation II Kit (Zymo Research, CA, USA). Uracil-deficient agar (YNB-URA) media was used for selection of URA positive colonies. PCR-based analysis of transformants was performed with primer pairs internal to the wild-type locus and the URA cassette. Homozygous transformants were reverted to the URA negative phenotype by selection on 5-fluororotic acid (5-FOA). Domain deletion knockouts were verified by immunoblot analysis.
as §1

[6] = target: T3, Histatin 5 (UniProt P15516)
T3 sequence (peptide): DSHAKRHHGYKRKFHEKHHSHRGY

Molecule: C[C@H](NC(=O)[C@H](Cc1cnc[nH]1)NC(=O)[C@H](CO)NC(=O)[C@@H](N)CC(=O)O)C(=O)N[C@@H](CCCCN)C(=O)N[C@@H](CCCNC(=N)N)C(=O)N[C@@H](Cc1cnc[nH]1)C(=O)N[C@@H](Cc1cnc[nH]1)C(=O)NCC(=O)N[C@@H](Cc1ccc(O)cc1)C(=O)N[C@@H](CCCCN)C(=O)N[C@@H](CCCNC(=N)N)C(=O)N[C@@H](CCCCN)C(=O)N[C@@H](Cc1ccccc1)C(=O)N[C@@H](Cc1cnc[nH]1)C(=O)N[C@@H](CCC(=O)O)C(=O)N[C@@H](CCCCN)C(=O)N[C@@H](Cc1cnc[nH]1)C(=O)N[C@@H](Cc1cnc[nH]1)C(=O)N[C@@H](CO)C(=O)N[C@@H](Cc1cnc[nH]1)C(=O)N[C@@H](CCCNC(=N)N)C(=O)NCC(=O)N[C@@H](Cc1ccc(O)cc1)C(=O)O [Hst 5, Histatin 5]
- effect on Hst 5 candidacidal activity ([1]; Hst 5 30 μM pre-incubated with heat inactivated rSap 6 (120 °C, 10 min)): did not affect Hst 5 activity
- effect on Hst 5 candidacidal activity ([1]; Hst 5 30 μM with porcine gut mucin 5 μg/mL): no effect on Hst 5 activity
- effect on Hst 5 candidacidal activity ([1]; Hst 5 30 μM with porcine gut mucin 50 μg/mL): no effect on Hst 5 activity
- intact Hst 5 mass peaks after incubation with protease [2]: completely disappeared
- intact Hst 5 mass peaks after incubation [3]: reduction in the peak intensity of all 3 m/z peaks for intact Hst 5 with no emergence of any significant lower m/z peaks
- intact Hst 5 mass peaks after incubation ([4]; 40 μM Hst 5 with 500 μg/mL porcine mucin, M + 4 (760) peak still observed at lower intensity): almost complete disappearance of m/z peaks at 507 and 608
- intact Hst 5 mass peaks after incubation ([4]; 40 μM Hst 5 with 50 or 500 μg/mL porcine mucin, C18 column): large dose-dependent decrease in the intensity of all three m/z peaks
- Hst 5 killing compared with WT ([5]; ED1/2Δ cells (release truncated Msb2 shed domain), p > 0.05): killing similar to WT Msb2-HA cells
- Hst 5 killing compared with WT ([5]; ED4Δ cells (constitutively shed Msb2), p > 0.05): killing similar to WT Msb2-HA cells
- Hst 5 killing compared with WT ([5]; TM-CYTΔ cells (lack transmembrane and cytoplasmic domain of Msb2)): reduced killing
- Hst 5 killing ([5]; cells lacking Msb2 (msb2Δ, no shedding), compared to other sMsb2 defective strains): killing was not significantly reduced

Molecule: albumin (from UniProt P02769 25-607) (natural protein)
- candidacidal activity (percent killing of C. albicans) of 30 uM Hst 5 after 1 h at 37 C with equimolar albumin; 70% without added protein [6]: 50 % killing

Molecule: purified full-length shed domain of Msb2 (domain or fragment)
- candidacidal activity (percent killing of C. albicans) of 30 uM Hst 5 after 1 h at 37 C with equimolar sMsb2; 70% without added protein [6]: 38 % killing

B1: fetuin (natural protein)
chain: IPLDPVAGYKEPACDDPDTEQAALAAVDYINKHLPRGYKHTLNQIDSVKVWPRRPTGEVYDIEIDTLETTCHVLDPTPLANCSVRQQTQHAVEGDCDIHVLKQDGQFSVLFTKCDSSPDSAEDVRKLCPDCPLLAPLNDSRVVHAVEVALATFNAESNGSYLQLVEISRAQFVPLPVSVSVEFAVAATDCIAKEVVDPTKCNLLAEKQYGFCKGSVIQKALGGEDVRVTCTLFQTQPVIPQPQPDGAEAEAPSAVPDAAGPTPSAAGPPVASVVVGPSVVAVPLPLHRAHYDLRHTFSGVASVESSSGEAFHVGKTPIVGQPSIPGGPVRLCPGRIRYFKI
modifications: glycosylated
- candidacidal activity (percent killing of C. albicans) of 30 uM Hst 5 after 1 h at 37 C with equimolar fetuin; 70% without added protein [6]: 50 % killing
